Data: PMC3577944 (Nature chemical biology, 2013)
Positions count from the first letter of the chain named. Entries after “also recorded” stand apart in the source; their conditions may differ. No end group written: not given here.

Key:
[1] = biological target: T1, D381A 3MBT (Homo sapiens, UniProt Q96JM7, D381A); experiment: ITC, domain 2 mutant; conditions: domain 2 binding pocket mutant
T1 sequence (Q96JM7 225-555 D381A): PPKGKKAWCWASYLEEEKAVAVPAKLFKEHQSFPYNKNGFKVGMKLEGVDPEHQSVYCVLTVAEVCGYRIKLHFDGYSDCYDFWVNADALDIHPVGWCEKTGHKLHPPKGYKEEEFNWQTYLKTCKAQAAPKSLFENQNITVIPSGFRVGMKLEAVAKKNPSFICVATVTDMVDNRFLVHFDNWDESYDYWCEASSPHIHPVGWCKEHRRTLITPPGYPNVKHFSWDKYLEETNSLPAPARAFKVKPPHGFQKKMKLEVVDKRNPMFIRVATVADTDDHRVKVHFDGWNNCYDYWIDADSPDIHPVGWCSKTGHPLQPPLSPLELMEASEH

[2] = test system: G9a, EHMT1, SUV39H2, PRMT3, SETD7, SETD8, DNMT1, MLL, PRC2, PRMT5; experiment: Histone methyltransferase selectivity, radioactive SAM methyl transfer; assay type: biochemical
[3] = biological target: T2, hM1 (Homo sapiens, UniProt P11229); experiment: M1 Ca2+ mobilization functional assay; assay type: cell-based
T2 sequence (P11229 1-460): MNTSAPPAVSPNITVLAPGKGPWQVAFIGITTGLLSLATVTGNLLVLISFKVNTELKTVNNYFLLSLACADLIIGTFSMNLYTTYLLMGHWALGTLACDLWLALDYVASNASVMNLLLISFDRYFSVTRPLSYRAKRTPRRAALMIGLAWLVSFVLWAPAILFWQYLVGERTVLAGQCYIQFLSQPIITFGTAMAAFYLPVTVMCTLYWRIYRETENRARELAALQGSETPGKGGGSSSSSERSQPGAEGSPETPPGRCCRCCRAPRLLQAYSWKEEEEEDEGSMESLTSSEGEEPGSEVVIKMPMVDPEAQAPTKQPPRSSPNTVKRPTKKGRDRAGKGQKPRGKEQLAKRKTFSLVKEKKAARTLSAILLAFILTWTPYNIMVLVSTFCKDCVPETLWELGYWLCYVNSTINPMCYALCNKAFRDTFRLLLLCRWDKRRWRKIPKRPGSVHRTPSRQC

[4] = biological target: T3, H277A 3MBT (Homo sapiens, UniProt Q96JM7, H277A); experiment: ITC, H277A mutant; assay type: binding; conditions: relative to wild-type
T3 sequence (Q96JM7 225-555 H277A): T1 sequence (Q96JM7 225-555 D381A) with H53A, A157D

[5] = biological target: 53BP1 (Homo sapiens, UniProt Q12888); experiment: H4K20me2 peptide pull-down competition; conditions: increasing concentrations
Chain of 53BP1 (Q12888 1459-1634): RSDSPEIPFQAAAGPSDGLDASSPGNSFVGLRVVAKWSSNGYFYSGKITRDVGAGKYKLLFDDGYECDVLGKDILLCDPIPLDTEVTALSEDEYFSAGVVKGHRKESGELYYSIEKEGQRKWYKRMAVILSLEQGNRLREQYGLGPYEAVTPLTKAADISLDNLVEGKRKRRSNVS

[6] = test system: HEK293T/17 cells; experiment: CellTiter-Glo luminescent cell viability assay; assay type: cell-based, human; conditions: up to 100 µM, 24 hours
[7] = biological target: T4, flag-FLMBT / BCLAF1 interaction (Homo sapiens, UniProt Q96JM7); experiment: Co-immunoprecipitation of BCLAF1 with flag-FLMBT; assay type: cell-based; conditions: 1 μM, 18 hours, HEK293 cells
T4 sequence (Q96JM7 1-755 isoform Q96JM7-2): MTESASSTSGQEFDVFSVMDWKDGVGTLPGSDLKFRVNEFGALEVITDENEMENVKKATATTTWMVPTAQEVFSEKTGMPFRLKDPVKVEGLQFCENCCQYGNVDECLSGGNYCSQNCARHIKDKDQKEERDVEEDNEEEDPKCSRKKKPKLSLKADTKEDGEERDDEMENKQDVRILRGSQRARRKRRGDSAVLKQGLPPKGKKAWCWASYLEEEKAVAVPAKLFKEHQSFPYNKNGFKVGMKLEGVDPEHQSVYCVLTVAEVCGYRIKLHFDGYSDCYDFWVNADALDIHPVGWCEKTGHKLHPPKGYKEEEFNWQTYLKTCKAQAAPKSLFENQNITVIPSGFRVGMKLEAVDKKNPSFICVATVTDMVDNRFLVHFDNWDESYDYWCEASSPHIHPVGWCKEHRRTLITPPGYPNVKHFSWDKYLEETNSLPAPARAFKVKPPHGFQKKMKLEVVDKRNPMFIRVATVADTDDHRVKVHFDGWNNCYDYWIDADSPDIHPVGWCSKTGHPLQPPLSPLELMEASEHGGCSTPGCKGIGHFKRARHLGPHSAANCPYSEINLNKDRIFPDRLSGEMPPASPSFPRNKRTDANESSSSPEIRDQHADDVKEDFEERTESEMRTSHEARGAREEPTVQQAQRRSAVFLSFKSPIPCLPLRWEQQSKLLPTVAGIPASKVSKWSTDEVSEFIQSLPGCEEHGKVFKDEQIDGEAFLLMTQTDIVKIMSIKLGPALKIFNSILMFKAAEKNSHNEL

[8] = test system: Bromodomains (12 targets); experiment: Bromodomain selectivity, differential scanning fluorimetry; assay type: binding; conditions: at 10 µM versus 12 targets
[9] = biological target: T5, D274A 3MBT (Homo sapiens, UniProt Q96JM7, D274A); experiment: ITC, domain 1 mutant; assay type: binding
T5 sequence (Q96JM7 225-555 D274A): T1 sequence (Q96JM7 225-555 D381A) with D50A, A157D

[10] = biological target: T6, GFP-FLMBT foci in 293 or U2OS cells (Homo sapiens, UniProt Q96JM7); experiment: GFP-FLMBT nuclear foci formation; assay type: cell-based; conditions: N-terminally tagged full length L3MBTL3
T6 sequence (Q96JM7 1-755 isoform Q96JM7-2): T4 sequence (Q96JM7 1-755 isoform Q96JM7-2)

[11] = biological target: T7, flag-3MBT / BCLAF1 interaction (Homo sapiens, UniProt Q96JM7); experiment: Co-immunoprecipitation of BCLAF1 with flag-3MBT; assay type: cell-based; conditions: 1 μM, 18 hours, HEK293 cells
T7 sequence (Q96JM7 225-555 limits assumed): T1 sequence (Q96JM7 225-555 D381A) with A157D

[12] = biological target: T8, GFP-3MBT (L3MBTL3 MBT domains) in HEK293 cells (Homo sapiens, UniProt Q96JM7); experiment: FRAP of GFP-3MBT; assay type: cell-based
T8 sequence (Q96JM7 200-530 isoform Q96JM7-2 limits assumed): T1 sequence (Q96JM7 225-555 D381A) with A157D

[13] = test system: Histone demethylases (15 targets); experiment: Lysine demethylase selectivity, differential scanning fluorimetry; assay type: binding
[14] = biological target: T9, hM2 (Homo sapiens, UniProt P08172); experiment: M2 cAMP biosensor functional assay; assay type: cell-based
T9 sequence (P08172 1-466): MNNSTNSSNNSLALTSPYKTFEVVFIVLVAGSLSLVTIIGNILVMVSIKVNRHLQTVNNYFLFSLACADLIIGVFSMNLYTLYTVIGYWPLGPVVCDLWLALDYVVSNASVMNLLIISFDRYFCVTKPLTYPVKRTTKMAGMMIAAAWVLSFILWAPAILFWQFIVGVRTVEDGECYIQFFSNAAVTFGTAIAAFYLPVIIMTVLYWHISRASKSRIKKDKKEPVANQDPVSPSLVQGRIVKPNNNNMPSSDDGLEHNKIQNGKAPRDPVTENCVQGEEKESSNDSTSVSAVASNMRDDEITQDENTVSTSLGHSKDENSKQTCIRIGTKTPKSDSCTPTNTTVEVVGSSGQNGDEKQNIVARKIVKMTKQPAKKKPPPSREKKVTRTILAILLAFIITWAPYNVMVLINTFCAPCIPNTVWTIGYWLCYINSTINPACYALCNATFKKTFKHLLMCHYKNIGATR

[15] = biological target: T10, L3MBTL3 (3MBT) (Homo sapiens, UniProt Q96JM7); experiment: H4K20me2 peptide pull-down competition; conditions: increasing concentrations
T10 sequence (Q96JM7 168-555 limits assumed): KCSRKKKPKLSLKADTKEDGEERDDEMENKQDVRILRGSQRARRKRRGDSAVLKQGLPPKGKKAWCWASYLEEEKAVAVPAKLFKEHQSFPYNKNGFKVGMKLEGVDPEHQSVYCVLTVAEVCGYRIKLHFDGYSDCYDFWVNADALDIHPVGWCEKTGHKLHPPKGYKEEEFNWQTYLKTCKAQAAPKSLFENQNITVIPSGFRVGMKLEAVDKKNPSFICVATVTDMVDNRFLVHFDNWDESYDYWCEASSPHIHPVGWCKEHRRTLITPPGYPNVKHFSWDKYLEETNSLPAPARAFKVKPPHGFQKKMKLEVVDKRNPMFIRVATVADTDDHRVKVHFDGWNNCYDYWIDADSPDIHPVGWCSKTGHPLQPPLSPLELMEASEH

[16] = biological target: T11, GFP-FLMBT (full length L3MBTL3) (Homo sapiens, UniProt Q96JM7); experiment: FRAP of GFP-FLMBT; assay type: cell-based; conditions: lesser extent than GFP-3MBT
T11 sequence (Q96JM7 1-755 isoform Q96JM7-2): T4 sequence (Q96JM7 1-755 isoform Q96JM7-2)

[17] = biological target: T12, L3MBTL3 (3MBT) (Homo sapiens, UniProt Q96JM7); assay type: binding; conditions: similar affinity to H4K20me histone peptides
T12 sequence (Q96JM7 225-555): T1 sequence (Q96JM7 225-555 D381A) with A157D

| Compound | binding to D381A 3MBT by ITC, in words [1] | activity against panel of histone methyltransferases, in words [2] | agonist activity, M1 [3] | binding to H277A 3MBT by ITC, in words [4] | antagonism of 53BP1 H4K20me2 pull-down, in words [5] | cytotoxicity (CellTiter-Glo cell viability) [6] | interaction between flag-FLMBT and BCLAF1, in words [7] | Tm shift, bromodomains [8] | binding diminished relative to wildtype, D274A 3MBT [9] | effect on GFP-FLMBT foci formation, in words [10] | interaction between flag-3MBT and BCLAF1, in words [11] | EC50 [12] | Tm shift, lysine demethylases [13] | agonist activity, M2 [14] | antagonism of L3MBTL3 (3MBT) H4K20me2 pull-down, in words [15] | mobility of GFP-FLMBT by FRAP, in words [16] | displacement of H4K20me2 from L3MBTL3 by AlphaScreen, in words [17] |
| --- | --- | --- | --- | --- | --- | --- | --- | --- | --- | --- | --- | --- | --- | --- | --- | --- | --- |
| O=C(c1ccc(C(=O)N2CCC(N3CCCC3)CC2)c(Nc2ccccc2)c1)N1CCC(N2CCCC2)CC1 [UNC1215] | completely abolished; also recorded: completely abrogates binding | inactive | no agonist activity | marked loss of affinity | much weaker affinity; also recorded: micromolar antagonism | no observable level of cytotoxicity | reduced to a lesser extent; also recorded: reduces the interaction | < 0.5 °C | about 30 fold | relatively ineffective at inhibiting foci formation; also recorded: could no longer be disrupted | substantially reduced; also recorded: disrupts the interaction | 50 to 100 nM | < 0.5 °C | no agonist activity | nanomolar potency | found to increase | – |
| BCLAF1 Kme peptide: K445me containing BCLAF1 peptide (residues 438-452) (YKSKVSLK(Me)GNRESDG) | – | – | – | – | – | – | – | – | – | – | – | – | – | – | – | – | effectively displaces H4K20me2 |
